# Results from US6653298B2, “Composition” (Sterix Limited, priority 2000, dated 2003).
# Key:
# [1] = tested on: Meth A sarcoma, B16 melanoma or MDA-MB-435 estrogen receptor negative (ER−) breast cancer cells; conditions: subcutaneous injection of Meth A sarcoma, B16 melanoma or MDA-MB-435 cells; cited from earlier work
# tubulin = conditions: at high concentrations; cited from earlier work
# endothelial cell = conditions: cited from earlier work
# microtubule = conditions: at high concentrations; cited from earlier work
# angiogenesis = conditions: cited from earlier work
# E1-STS [2] = biological target: T1, E1-STS (Homo sapiens, UniProt P08842); conditions: cited from earlier work
# T1 sequence (P08842 22-583): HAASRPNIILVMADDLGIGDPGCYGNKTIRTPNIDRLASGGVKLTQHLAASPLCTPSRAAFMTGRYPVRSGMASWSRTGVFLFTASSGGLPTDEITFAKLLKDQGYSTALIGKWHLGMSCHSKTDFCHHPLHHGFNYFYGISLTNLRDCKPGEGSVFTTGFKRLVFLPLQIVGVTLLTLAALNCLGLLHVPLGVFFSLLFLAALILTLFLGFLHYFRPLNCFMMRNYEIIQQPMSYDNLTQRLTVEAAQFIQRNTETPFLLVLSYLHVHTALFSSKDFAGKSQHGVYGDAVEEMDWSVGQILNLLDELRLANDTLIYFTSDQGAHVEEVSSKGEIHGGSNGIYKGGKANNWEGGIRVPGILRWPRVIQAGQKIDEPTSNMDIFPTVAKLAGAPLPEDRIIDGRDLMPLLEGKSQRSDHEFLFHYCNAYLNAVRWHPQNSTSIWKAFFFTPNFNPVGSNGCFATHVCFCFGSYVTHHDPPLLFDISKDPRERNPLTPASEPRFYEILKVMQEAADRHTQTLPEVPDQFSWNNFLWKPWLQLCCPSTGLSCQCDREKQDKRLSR
# uterine growth = conditions: cited from earlier work
# [3] = referring to antigonadotropic properties; cited from earlier work
# [4] = single oral dose 50 μg, FIG. 4; cited from earlier work
# rat liver DHA-STS = biological target: T2, rat liver DHA-STS (Rattus norvegicus, UniProt P15589); conditions: in vivo, administered either orally or subcutaneously; cited from earlier work
# T2 construct: samples of liver tissue were obtained and oestrone sulphatase activity assayed; from tissue; host or cells: rat liver (after in vivo dosing)
# T2 sequence (P15589 20-577): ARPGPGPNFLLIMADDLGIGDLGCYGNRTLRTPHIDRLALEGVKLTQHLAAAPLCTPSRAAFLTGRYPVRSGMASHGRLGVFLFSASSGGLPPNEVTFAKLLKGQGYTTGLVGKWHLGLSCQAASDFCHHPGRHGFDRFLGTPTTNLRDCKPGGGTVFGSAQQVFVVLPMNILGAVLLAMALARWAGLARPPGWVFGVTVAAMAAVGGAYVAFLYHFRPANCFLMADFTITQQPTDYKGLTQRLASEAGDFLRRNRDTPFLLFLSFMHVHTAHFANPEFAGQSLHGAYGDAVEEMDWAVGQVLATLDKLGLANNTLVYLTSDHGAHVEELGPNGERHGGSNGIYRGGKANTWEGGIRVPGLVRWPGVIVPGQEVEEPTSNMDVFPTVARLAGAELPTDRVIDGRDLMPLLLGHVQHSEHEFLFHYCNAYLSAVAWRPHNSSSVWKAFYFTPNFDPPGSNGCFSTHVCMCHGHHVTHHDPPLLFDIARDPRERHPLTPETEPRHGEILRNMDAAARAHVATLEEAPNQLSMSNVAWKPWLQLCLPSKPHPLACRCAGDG
# [5] = biological target: T3, dehydroepiandrosterone sulphatase (DHA-STS) (Homo sapiens, UniProt P08842); conditions: cited from earlier work
# T3 sequence (P08842 22-583): T1 sequence (P08842 22-583)
# [6] = rats; cited from earlier work
# E1-STS [7] = biological target: T1, E1-STS; set-up: endogenous in cells; host or cells: MCF-7; dose or concentration left out as unconfirmed; conditions: intact MCF-7 cells; cited from earlier work
# estrogen receptor [8] = assay: In vitro estrogen receptor binding / displacement of radiolabelled oestradiol
# Description: (§1) Oestradiol Sulfamate (J995) was investigated with respect to its hormonal properties in vitro and in vivo. In vitro studies included the evaluation of its specific binding to oestrogen receptors using cytosolic preparations of uterine tissue of rats and mice and MCF-7 tumor cells. In vivo studies were performed on several animal species including intact and ovariectomised rats and cynomolgus monkeys. These species served for detailed pharmacodynamic and pharmacokinetic studies at parenteral and oral administration of the compound.
# [9] = Distribution of compound in blood (erythrocyte binding)
# estrogen receptor [10] = biological target: T4, estrogen receptor (Rattus norvegicus, UniProt P06211); assay: Specific binding of radiolabelled J995 to estrogen receptor of rats
# T4 construct: using cytosolic preparations of uterine tissue of rats and mice and MCF-7 tumor cells; from tissue; host or cells: rat uterine cytosol
# T4 sequence (P06211 1-600): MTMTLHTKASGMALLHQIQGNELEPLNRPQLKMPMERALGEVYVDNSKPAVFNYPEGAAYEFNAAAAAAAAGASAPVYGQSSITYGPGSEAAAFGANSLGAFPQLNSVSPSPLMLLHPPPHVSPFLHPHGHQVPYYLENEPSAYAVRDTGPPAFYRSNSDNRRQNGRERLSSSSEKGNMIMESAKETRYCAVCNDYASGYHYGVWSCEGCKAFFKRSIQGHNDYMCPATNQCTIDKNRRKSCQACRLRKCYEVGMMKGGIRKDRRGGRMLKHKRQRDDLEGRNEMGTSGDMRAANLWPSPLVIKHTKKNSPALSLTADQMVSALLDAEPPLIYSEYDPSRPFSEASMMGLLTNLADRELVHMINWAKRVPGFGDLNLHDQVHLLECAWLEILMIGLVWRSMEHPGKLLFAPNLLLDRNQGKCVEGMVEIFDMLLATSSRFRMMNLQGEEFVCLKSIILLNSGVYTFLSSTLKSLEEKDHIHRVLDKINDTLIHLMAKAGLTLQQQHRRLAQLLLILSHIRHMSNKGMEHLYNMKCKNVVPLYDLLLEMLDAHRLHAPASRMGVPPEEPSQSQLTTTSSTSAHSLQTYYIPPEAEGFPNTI
# Description: as §1
# estrogen receptor [11] = biological target: T5, estrogen receptor (Mus musculus, UniProt P19785); assay: Specific binding of radiolabelled J995 to estrogen receptor of mice
# T5 construct: using cytosolic preparations of uterine tissue of rats and mice and MCF-7 tumor cells; from tissue; host or cells: mouse uterine cytosol
# T5 sequence (P19785 1-599): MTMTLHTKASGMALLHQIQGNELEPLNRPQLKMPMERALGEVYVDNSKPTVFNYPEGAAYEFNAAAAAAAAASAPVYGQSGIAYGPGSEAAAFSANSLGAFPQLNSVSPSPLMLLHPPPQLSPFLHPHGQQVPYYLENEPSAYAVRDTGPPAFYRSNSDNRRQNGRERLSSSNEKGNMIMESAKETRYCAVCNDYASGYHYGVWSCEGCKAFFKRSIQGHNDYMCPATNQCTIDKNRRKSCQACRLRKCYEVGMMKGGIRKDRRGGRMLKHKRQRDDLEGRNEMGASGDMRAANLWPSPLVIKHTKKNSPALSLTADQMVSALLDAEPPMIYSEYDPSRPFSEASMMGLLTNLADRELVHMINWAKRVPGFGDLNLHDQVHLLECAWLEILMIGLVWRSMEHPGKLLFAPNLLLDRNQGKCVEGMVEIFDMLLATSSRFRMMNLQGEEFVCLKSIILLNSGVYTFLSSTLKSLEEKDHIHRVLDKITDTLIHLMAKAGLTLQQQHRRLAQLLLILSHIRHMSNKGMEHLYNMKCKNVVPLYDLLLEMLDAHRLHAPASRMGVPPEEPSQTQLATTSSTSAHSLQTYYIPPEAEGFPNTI
# Description: as §1
# [12] = Clinical pharmacokinetics after oral administration in postmenopausal women; assay type: in vivo, human
# Description: Studies in the human were performed with oral administration of the compound in postmenopausal women. Several doses at single and multiple administration were evaluated. […] studies were performed with solutions in oily vehicles for parenteral administration. Oral treatment was performed with suspensions of cristalline J995 in aquaeous vehicle. Clinical studies were performed with amorphous drug substance galenically formulated with a mixture of conventional ingredients as capsules or tablets.
# estrogen receptor [13] = biological target: T6, estrogen receptor (Homo sapiens, UniProt P03372); assay: Specific binding of radiolabelled J995 to human estrogen receptor
# T6 construct: using cytosolic preparations of uterine tissue of rats and mice and MCF-7 tumor cells; endogenous in cells; host or cells: MCF-7 cytosol
# T6 sequence (P03372 1-595): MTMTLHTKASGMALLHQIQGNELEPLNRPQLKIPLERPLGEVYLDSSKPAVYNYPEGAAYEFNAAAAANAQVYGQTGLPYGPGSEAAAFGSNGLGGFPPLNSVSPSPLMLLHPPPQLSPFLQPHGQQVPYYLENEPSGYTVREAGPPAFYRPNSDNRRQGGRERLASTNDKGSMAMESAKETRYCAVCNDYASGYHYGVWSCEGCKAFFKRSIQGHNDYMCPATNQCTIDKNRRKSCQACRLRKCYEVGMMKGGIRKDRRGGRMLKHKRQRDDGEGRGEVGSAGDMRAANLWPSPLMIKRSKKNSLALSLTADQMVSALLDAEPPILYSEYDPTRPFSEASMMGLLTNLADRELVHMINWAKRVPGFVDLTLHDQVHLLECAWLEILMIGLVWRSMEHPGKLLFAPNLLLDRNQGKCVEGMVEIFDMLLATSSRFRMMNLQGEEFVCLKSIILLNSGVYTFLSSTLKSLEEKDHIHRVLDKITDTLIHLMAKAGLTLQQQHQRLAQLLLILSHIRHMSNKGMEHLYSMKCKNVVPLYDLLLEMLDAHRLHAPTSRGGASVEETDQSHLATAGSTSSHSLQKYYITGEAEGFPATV
# Description: as §1
# [14] = single oral dose of 0.5 mg, FIG. 11
# [15] = single oral dose of 0.5 mg, over 5 days, FIG. 11
compound,measurement,setting,value
"COc1cc2c(cc1O)CC[C@@H]1[C@@H]2CC[C@]2(C)[C@@H](O)CC[C@@H]12 [2-MeOE2, 2-methoxyoestradiol]",growth of tumours in vivo,[1],inhibits the growth of tumours
same,inhibition of colchicine binding to tubulin,tubulin,weak inhibitor of colchicine binding to tubulin
same,endothelial cell proliferation and migration,endothelial cell,inhibits endothelial cell proliferation and migration
same,microtubule polymerisation,microtubule,can inhibit microtubule polymerisation
same,in vitro angiogenesis,angiogenesis,inhibits
"COc1cc2c(cc1OS(N)(=O)=O)CC[C@@H]1[C@@H]2CC[C@]2(C)C(=O)CC[C@@H]12 [2-methoxyoestrone-3-O-sulphamate, reference compound]",potency as steroid sulphatase inhibitor relative to EMATE,E1-STS [2],equipotent with EMATE
same,oestrogenicity,"uterine growth; rat, in vivo",devoid of oestrogenicity
"C#C[C@]1(O)CC[C@H]2[C@@H]3CCc4cc(O)ccc4[C@H]3CC[C@@]21C [EE, ethinyl estradiol]",oestrogenicity in the liver relative to orally applied natural estrogens,[3],4 to 18 times
same,definition of blood levels (individual variation),[4],does not lead to well defined blood levels
"CC12CCC3c4ccc(OS(N)(=O)=O)cc4CCC3C1CCC2=O (stereo not drawn) [EMATE, oestrone-3-O-sulphamate]",inhibition of rat liver DHA-STS activity,rat liver DHA-STS,99%
same,inhibition of DHA-STS,[5],inhibits dehydroepiandrosterone sulphatase
same,effect on memory,[6],memory enhancing effect
same,manner of inhibition of the E1-STS enzyme,E1-STS [2],time- and concentration-dependent manner
same,oral uterotrophic activity relative to estradiol,"uterine growth; rats, oral",100 times
same,inhibition of E1-STS activity,E1-STS [7],more than 99%
"C[C@]12CC[C@@H]3c4ccc(OS(N)(=O)=O)cc4CC[C@H]3[C@@H]1CC[C@@H]2O [J995, oestradiol-3-sulphamate]",displacement of specifically bound radioactively labelled Oestradiol,estrogen receptor [8]; huge excess of J995,unable to displace specifically bound radioactively labelled Oestradiol
same,affinity to the estrogen receptor,estrogen receptor [8]; in vitro,no affinity to the estrogen receptor
same,amount circulating in the erythrocyte compartment,[9],98-99%
same,specific binding of radioactively labelled compound to estrogen receptor,estrogen receptor [10],no specific binding
same,specific binding of radioactively labelled compound to estrogen receptor,estrogen receptor [11],no specific binding
same,factor by which metabolite oestrone sulphate stays lower than under Oestradiol Valerate treatment,[12]; FIG. 5: single oral 2 mg J995 vs multiple doses 2 mg E2V,≥ 10
same,constancy of blood levels of oestrogens,[12]; FIGS. 5-10,"very constant, long lasting blood levels"
same,oestradiol levels compared with Oestradiol Valerate at the same dose,"[12]; FIGS. 6, 7",higher and much longer lasting oestradiol levels
same,oestrone sulphate levels in wash out phase,"[12]; after 14 days of 100 μg per day, wash out phase over 144 hours, FIG. 9",almost constant oestrone sulphate levels
same,orally administered compound reaching the erythrocyte pool,[12]; oral,~100%
same,prodrug appearing as oestrone and oestradiol in the circulation,"[12]; oral, FIG. 11",more than 50%
same,total ES amount in blood,[12]; [14],≈ 500 μg/5 L blood
same,total ES concentration per blood volume,[12]; [14],~100 μg/L blood
same,total ES erythrocyte conc.,[12]; [14],Ca. 200 ng/mL erythrocytes
same,E1S plasma level,[12]; [15],700 pg/mL
same,E1 plasma level,[12]; [15],40 pg/mL
same,Clearance of E1S calculated (amount),"[12]; single oral dose of 0.5 mg, 110 l×700 ng/l/day",385 μg/5 days
same,Clearance of E1 calculated (amount),"[12]; single oral dose of 0.5 mg, 1870 l×40 ng/l/day",374 μg/5 days
same,specific binding of radioactively labelled compound to estrogen receptor,estrogen receptor [13],no specific binding
oestrone-3-N-sulphamate,manner of inhibition of the E1-STS enzyme,E1-STS [2],weaker non-time-dependent inactivators
oestrone-3-S-sulphamate,manner of inhibition of the E1-STS enzyme,E1-STS [2],weaker non-time-dependent inactivators
